From US5472959A, “Carboxyalkyl derivatives useful as inhibitors of enkephalinase and ace” (Merrell Dow Pharmaceuticals Inc., priority 1994, dated 1995)

What was measured:
[1] = Needleman, Hypertension 7, 469 (1985), cited from earlier work
Enkephalinase = molecular target: T1, Enkephalinase (Rattus norvegicus, UniProt P07861); assay: Enkephalinase inhibition, fluorometric assay with dansyl-D-AlaGly(p-nitro)PheGly; assay type: biochemical; settings: substrate of enkephalinase, 50 mM HEPES pH 7.4, 25° C.
T1 construct: Enkephalinase is partially purified from rat kidney; from tissue; host or cells: rat kidney (microvilli fraction), further purified by Mono Q anion exchange
T1 sequence (P07861 1-750): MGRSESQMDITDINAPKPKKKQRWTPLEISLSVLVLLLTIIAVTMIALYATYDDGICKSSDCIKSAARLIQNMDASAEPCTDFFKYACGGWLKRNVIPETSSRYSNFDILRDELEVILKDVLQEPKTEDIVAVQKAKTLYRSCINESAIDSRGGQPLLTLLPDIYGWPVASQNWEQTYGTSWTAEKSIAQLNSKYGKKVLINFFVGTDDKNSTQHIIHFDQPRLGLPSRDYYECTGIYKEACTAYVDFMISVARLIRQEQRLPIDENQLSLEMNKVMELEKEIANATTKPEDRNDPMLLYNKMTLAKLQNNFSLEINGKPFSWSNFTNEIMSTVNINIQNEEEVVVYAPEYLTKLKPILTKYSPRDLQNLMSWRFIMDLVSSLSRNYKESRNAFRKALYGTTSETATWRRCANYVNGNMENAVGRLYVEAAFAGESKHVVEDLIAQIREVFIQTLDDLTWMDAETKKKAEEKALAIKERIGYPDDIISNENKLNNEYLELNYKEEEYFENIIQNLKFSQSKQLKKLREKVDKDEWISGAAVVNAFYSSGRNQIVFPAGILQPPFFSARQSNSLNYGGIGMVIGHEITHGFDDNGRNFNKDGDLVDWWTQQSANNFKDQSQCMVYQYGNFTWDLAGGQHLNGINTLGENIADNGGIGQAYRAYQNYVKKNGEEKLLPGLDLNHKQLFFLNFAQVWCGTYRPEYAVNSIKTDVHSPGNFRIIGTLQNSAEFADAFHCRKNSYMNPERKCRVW
Description: Enkephalinase is partially purified from rat kidney. The enzyme is extracted from the microvilli fraction by using Triton X-100 according to the method of Malfroy and Schwartz [Biol. Chem. 259, 14365-14370 (1984)] or by using a proteolytic treatment according to the method of Almenoff and Orlowski [Biochem. 22, 590-599 (1983)]. The enzyme is further purified by anion exchange chromatography (Mono Q™ column, Pharmacia) using a Pharmacia FPLC system. The enzyme activity may be measured by the fluorometric methods of Florentin et al. [
Anal. Biochem. 141, 62-69 (1984)] or of Almenoff and Orlowski [Neurochemistry 42, 151-157 (1984)]. The enzyme is assayed in 50 mM HEPES buffer (pH 7.4) in a 3.0 mL reaction volume containing 12 μM of the substrate dansyl-D-AlaGly(p-nitro)PheGly (Km =40μM) at 25° C. The substrate (and inhibitor) is added from a concentrated stock solution in DMSO (up to 0.1 mL DMSO final volume). The enzyme in a small volume (approximately 0.1 μg of FPLC purified protein) is added to initiate the reaction and the rate of fluorecense increase is recorded continuously using a fluorometer (excitation at 339 nm, emission at 562 nm).

Row | Km (Enkephalinase) | Substance | binding affinity, lower end of range ([1]; affinities ranging from about) | binding affinity, upper end of range ([1]; affinities ranging to about)
1 | – | ANP: family of naturally-occurring peptides which are involved in the homeostatic regulation of blood pressure, as well as sodium and water levels | ≥ 50 pM | ≤ 500 nM
2 | 40 µM | dansyl-D-AlaGly(p-nitro)PheGly | – | –
